# Reference: US10414797B2, “Gelatinase inhibitors and use thereof” (Iproteos S.L, priority 2015, dated 2019)
# Where a SMILES comes first, the peptide text is derived from it. [ ]: non-standard residue; d: D form. The star is where a group is joined. ξ: configuration not given here. NMeIle(3ξ) = CCC(C)[C@H](NC)C(=O)O; NMeQ = CN[C@@H](CCC(N)=O)C(=O)O; Ile(3ξ) = CCC(C)[C@H](N)C(=O)O; Hexanoyl = CCCCCC(=O)*; NHOH = ON*
# Key:
# [1] = molecular target: MMP-2 (Homo sapiens (Human), UniProt P08253); assay: MMP-2 inhibition assay (fluorimetric, DQ gelatin substrate); assay type: biochemical; conditions: recombinant MMP-2 (CHO cells) 85 ng/mL, DQ gelatin 50 μg/mL, 2 hours at room temperature, pH 7.6
# Sequence of MMP-2 (P08253 110-660): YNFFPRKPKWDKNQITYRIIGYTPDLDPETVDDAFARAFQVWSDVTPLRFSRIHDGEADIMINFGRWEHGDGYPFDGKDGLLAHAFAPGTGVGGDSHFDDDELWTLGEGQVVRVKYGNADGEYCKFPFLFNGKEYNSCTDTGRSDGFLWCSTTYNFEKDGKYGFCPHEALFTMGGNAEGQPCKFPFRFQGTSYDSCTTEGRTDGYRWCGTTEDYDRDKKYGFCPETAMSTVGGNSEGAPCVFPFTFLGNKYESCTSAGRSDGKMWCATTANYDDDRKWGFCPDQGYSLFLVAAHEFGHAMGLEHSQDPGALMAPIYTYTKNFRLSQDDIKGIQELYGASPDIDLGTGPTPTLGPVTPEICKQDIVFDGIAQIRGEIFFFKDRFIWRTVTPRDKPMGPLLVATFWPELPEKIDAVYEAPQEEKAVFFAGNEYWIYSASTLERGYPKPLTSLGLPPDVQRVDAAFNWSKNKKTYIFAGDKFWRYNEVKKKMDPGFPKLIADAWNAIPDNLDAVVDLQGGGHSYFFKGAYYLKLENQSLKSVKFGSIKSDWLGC
# Method: (§1) All the experiments were done in 1× reaction buffer, which was obtained from a 10× reaction buffer solution. The content of the 10× reaction buffer was: 50 mL of 0.5 M Tris-HCl, 1.5 M NaCl, 50 mM CaCl2 and 2 mM sodium azide at pH 7.6. To obtain the 1× reaction buffer 4 mL of the 10× reaction buffer were diluted in 36 mL of H2O.
# Recombinant MMP-2 expressed in Chinese hamster ovary (CHO) cells was obtained from Merck-Millipore (catalog number PF023-5UG). DQ gelatin from pig skin fluorescein conjugated (MMP-2 substrate) was obtained from Life Technologies (catalog number E12055).
# Preparation of the MMP-2 for the activity assay: MMP-2 was provided as a stock solution (0.1 mg/mL). The enzyme was diluted in 1× reaction buffer to a final concentration of 5 μg/mL.
# (§2) Preparation of the DQ gelatin (substrate) solution for the activity assay: the solid form of the substrate was dissolved in water in order to obtain a stock solution of 1 mg/mL.
# (§3) Procedure: The enzymatic assays were performed in 96-well microtiter plate, which allowed simultaneous monitoring of multiple reactions. For each reaction, 86.3 μL of 1× reaction buffer (pH 7.6), 1.7 μL of MMP-2 (final concentration 85 ng/mL) and 2 μL of the corresponding new compound were added to each well. A stock solution of new compound was prepared in DMSO (100 mM), and dilutions were prepared from this stock solution with DMSO. Finally, to the mixture contained in each well 10 μL of the substrate were added (final concentration 50 μg/mL). The reaction was incubated for 2 hours at room temperature in an orbital shaker (100 rpm).
# (§4) The inhibitory activity of the new compound was measured fluorimetrically. The excitation and emission wavelengths were 483 and 525 nm, respectively.
# (§5) Inhibitory activity at several concentration points (ranging from 100 pM to 200 μM MMP) were measured for each compound. The inhibitory activity on MMP-2 and MMP-9 was calculated according to eq 1. For each new compound, the fluorescence in the presence (a) and in the absence (b) of the corresponding MMP was measured. The maximum fluorescence (0% inhibitory activity) was obtained from a sample of the corresponding MMP in the absence of inhibitory compounds. To estimate the inhibitory potency of the novel compounds, activities were plotted against the log concentration of the compound, adjusting to a sigmoid curve using GraphPad Prism software, and the IC50 value, defined as the concentration of compound required to inhibit 50% of the corresponding MMP activity, was determined from resulting curve.
# (§6) a corresponds to fluorescence intensity in the presence of substrate+test compound+MMP
# (§7) b corresponds to the fluorescence intensity in the presence of substrate+tested compound
# (§8) c corresponds to the fluorescence intensity in the presence of substrate+MMP
# (§9) d corresponds to the fluorescence intensity of the presence of substrate
# [2] = molecular target: MMP-9; assay: MMP-9 inhibition assay (fluorimetric, DQ gelatin substrate); assay type: biochemical; conditions: recombinant MMP-9 (Merck-Millipore for examples 1 to 9 and comparative examples; Enzo for examples 10 to 16), DQ gelatin 50 μg/mL, 4 hours at room temperature, pH 7.6
# Sequence of MMP-9 (P14780 107-707 limits assumed): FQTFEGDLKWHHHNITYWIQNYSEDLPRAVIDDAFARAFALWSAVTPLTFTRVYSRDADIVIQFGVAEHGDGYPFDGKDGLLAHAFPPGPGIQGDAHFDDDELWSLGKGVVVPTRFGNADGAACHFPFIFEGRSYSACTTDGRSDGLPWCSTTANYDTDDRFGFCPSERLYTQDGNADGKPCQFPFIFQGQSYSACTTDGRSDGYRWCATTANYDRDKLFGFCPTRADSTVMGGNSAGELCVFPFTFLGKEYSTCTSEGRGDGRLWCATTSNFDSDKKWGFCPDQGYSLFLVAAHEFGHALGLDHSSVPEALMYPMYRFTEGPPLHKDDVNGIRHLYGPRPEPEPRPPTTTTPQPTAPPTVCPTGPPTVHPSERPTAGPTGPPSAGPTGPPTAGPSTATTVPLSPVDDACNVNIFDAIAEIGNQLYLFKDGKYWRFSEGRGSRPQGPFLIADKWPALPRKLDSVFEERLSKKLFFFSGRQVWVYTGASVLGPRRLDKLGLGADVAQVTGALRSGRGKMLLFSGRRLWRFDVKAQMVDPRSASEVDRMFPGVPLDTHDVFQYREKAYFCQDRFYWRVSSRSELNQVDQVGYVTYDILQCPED
# Method: as §1
# Recombinant MMP-9 expressed was obtained from Merck-Millipore (catalog number PF140-5UG, used in examples 1 to 9 and comparative examples) and Enzo (catalog number-SE360-0010, used in examples 10 to 16). DQ gelatin from pig skin fluorescein conjugated (MMP-9 substrate) was obtained from Life Technologies (catalog number E12055).
# Preparation of the MMP-9 for the activity assay: MMP-9 was provided as a stock solution (0.1 mg/mL). The enzyme was diluted in 1× reaction buffer to a final concentration of 5 μg/mL.
# as §2
# as §3, with “reaction, 84.6” for “reaction, 86.3”, “7.6), […]” for “7.6), 1.7”, “of MMP-9” for “of MMP-2”, “for 4” for “for 2”
# as §4, §5, §6, §7, §8, §9
Compound,IC50 [1] [µM],IC50 [2] [µM]
"CCC(C)[C@H](NC(=O)[C@H](Cc1c[nH]c2ccccc12)NC(=O)[C@H](CCC(N)=O)NC(C)=O)C(=O)NO (stereo partly drawn) [Example C18, (2 S)-2-acetamido-N-[(1S)-2-[[(1S)-1-(hydroxycarbamoyl)-2-methyl-butyl]amino]-1-(1H-indol-3-ylmethyl)-2-oxo-ethyl]pentanediamide, reference compound] (Ac-Gln-Trp-[Ile(3ξ)]-{NHOH})",710,240
"CCCCCC(=O)N1CCC[C@H]1C(=O)N(C)[C@@H](CCC(N)=O)C(=O)N[C@@H](Cc1c[nH]c2ccccc12)C(=O)NO [Example C23, (2S)-2-[[(SS)-1-hexanoylpyrrolidine-2-carbonyl)-methyl-amino]-N-[(1S)-2-(hydroxyamino)-1-(1H-indol-3-ylmethyl)-2-oxo-ethyl]pentanediamide, reference compound] (Hexanoyl-Pro-[NMeQ]-Trp-{NHOH})",> 2000,> 1000
"CCC(C)[C@@H](C(=O)N[C@@H](Cc1c[nH]c2ccccc12)C(=O)NO)N(C)C(=O)[C@@H]1CCCN1C(C)=O (stereo partly drawn) [Example C21, (2S)-1-acetyl-N-[(1S)-1-[[(1S)-2-(hydroxyamino)-1-(1H-indol-3-ylmethyl)-2-oxo-ethyl]carbamoyl]-2-methyl-butyl]-N-methyl-pyrrolidine-2-carboxamide, reference compound] (Ac-Pro-[NMeIle(3ξ)]-Trp-{NHOH})",110,16
"CCC(C)[C@H](NC(=O)[C@@H]1CCCN1C(=O)[C@H](CCC(N)=O)NC(C)=O)C(=O)NO (stereo partly drawn) [Example C19, (2S)-1-[(2S)-2-acetamido-5-amino-5-oxo-pentanoyl]-N-[(1S)-1-(hydroxycarbamoyl)-2-methyl-butyl]pyrrolidine-2-carboxamide, reference compound] (Ac-Gln-Pro-[Ile(3ξ)]-{NHOH})",> 2000,> 2000
